In the NIST ThermoML archive (doi:10.1016/j.jct.2008.10.007):
± gives the expanded uncertainty stated by the source.

Experiments:
[1] = xn = mol fraction of the nth substance listed; conditions: 298.15 K, 101 kPa, Liquid, Vibrating tube method
[2] = excess molar enthalpy (molar enthalpy of mixing); xn = mol fraction of the nth substance listed; conditions: 298.15 K, 101 kPa, Liquid, Calvet calorimetry

ClCCCCCl [1,4-dichlorobutane] + CCCOC(C)=O
Conditions	excess molar enthalpy [kcal/mol]	mass density [kg/m3]
[1], x2 = 0.0583	–	1118.51 ± 6.2
[1], x2 = 0.1175	–	1103.2 ± 5.4
[1], x2 = 0.1743	–	1088.55 ± 4.7
[1], x2 = 0.232	–	1073.72 ± 4.1
[1], x2 = 0.3494	–	1043.76 ± 3
[1], x2 = 0.465	–	1014.55 ± 2.1
[1], x2 = 0.523	–	999.98 ± 1.8
[1], x2 = 0.5845	–	984.6 ± 1.4
[1], x2 = 0.6424	–	970.19 ± 1.2
[1], x2 = 0.7011	–	955.64 ± 0.94
[1], x2 = 0.7618	–	940.61 ± 0.73
[1], x2 = 0.8813	–	911.2 ± 0.43
[1], x2 = 0.9397	–	896.91 ± 0.32
[2], x2 = 0.0555	-0.00478 ± 0.000239	–
[2], x2 = 0.1316	-0.0131 ± 0.000478	–
[2], x2 = 0.2183	-0.0234 ± 0.000717	–
[2], x2 = 0.3079	-0.0359 ± 0.000956	–
[2], x2 = 0.3915	-0.048 ± 0.0012	–
[2], x2 = 0.456	-0.055 ± 0.0012	–
[2], x2 = 0.4663	-0.0559 ± 0.0012	–
[2], x2 = 0.4979	-0.0576 ± 0.0012	–
[2], x2 = 0.5721	-0.0564 ± 0.0012	–
[2], x2 = 0.6576	-0.0523 ± 0.0012	–
[2], x2 = 0.7494	-0.0447 ± 0.000956	–
[2], x2 = 0.8443	-0.0318 ± 0.000717	–
[2], x2 = 0.9296	-0.0174 ± 0.000478	–

ClCCCCCCl [1,5-dichloropentane] + CCCOC(=O)CC
Conditions	excess molar enthalpy [kcal/mol]	mass density [kg/m3]
[1], x2 = 0.0586	–	1081.99 ± 5.7
[1], x2 = 0.1204	–	1068.2 ± 5
[1], x2 = 0.1736	–	1056.39 ± 4.4
[1], x2 = 0.2854	–	1031.55 ± 3.4
[1], x2 = 0.3403	–	1019.42 ± 2.9
[1], x2 = 0.4006	–	1006.12 ± 2.5
[1], x2 = 0.5242	–	978.97 ± 1.7
[1], x2 = 0.635	–	954.74 ± 1.2
[1], x2 = 0.6961	–	941.43 ± 0.94
[1], x2 = 0.7548	–	928.67 ± 0.74
[1], x2 = 0.8219	–	914.07 ± 0.56
[1], x2 = 0.8809	–	901.3 ± 0.42
[1], x2 = 0.942	–	888.12 ± 0.31
[2], x2 = 0.0588	-0.00406 ± 0.000239	–
[2], x2 = 0.1375	-0.0136 ± 0.000478	–
[2], x2 = 0.2257	-0.0241 ± 0.000717	–
[2], x2 = 0.3118	-0.0375 ± 0.000956	–
[2], x2 = 0.3922	-0.0495 ± 0.0012	–
[2], x2 = 0.4517	-0.0576 ± 0.0012	–
[2], x2 = 0.4693	-0.059 ± 0.00143	–
[2], x2 = 0.5239	-0.0609 ± 0.00143	–
[2], x2 = 0.5982	-0.0588 ± 0.00143	–
[2], x2 = 0.6783	-0.0526 ± 0.0012	–
[2], x2 = 0.7663	-0.0425 ± 0.000956	–
[2], x2 = 0.855	-0.0287 ± 0.000717	–
[2], x2 = 0.9359	-0.0146 ± 0.000478	–

ClCCCCCCl [1,5-dichloropentane] + CCCOC(C)=O
Conditions	excess molar enthalpy [kcal/mol]	mass density [kg/m3]
[1], x2 = 0.0592	–	1083.72 ± 5.8
[1], x2 = 0.126	–	1070.79 ± 5
[1], x2 = 0.1854	–	1059.08 ± 4.3
[1], x2 = 0.2502	–	1046.15 ± 3.7
[1], x2 = 0.3122	–	1033.6 ± 3.2
[1], x2 = 0.3736	–	1021.02 ± 2.7
[1], x2 = 0.495	–	995.63 ± 1.9
[1], x2 = 0.5537	–	983.11 ± 1.6
[1], x2 = 0.6672	–	958.42 ± 1.1
[1], x2 = 0.7269	–	945.17 ± 0.84
[1], x2 = 0.7802	–	933.16 ± 0.68
[1], x2 = 0.8365	–	920.34 ± 0.53
[1], x2 = 0.889	–	908.23 ± 0.41
[1], x2 = 0.9471	–	894.67 ± 0.31
[2], x2 = 0.0656	-0.00382 ± 0.000239	–
[2], x2 = 0.1426	-0.00478 ± 0.000239	–
[2], x2 = 0.2338	-0.0134 ± 0.000478	–
[2], x2 = 0.3247	-0.0239 ± 0.000717	–
[2], x2 = 0.4088	-0.0337 ± 0.000717	–
[2], x2 = 0.4844	-0.0392 ± 0.000956	–
[2], x2 = 0.5426	-0.0409 ± 0.000956	–
[2], x2 = 0.5428	-0.0411 ± 0.000956	–
[2], x2 = 0.6183	-0.0409 ± 0.000956	–
[2], x2 = 0.6974	-0.0366 ± 0.000956	–
[2], x2 = 0.7844	-0.0282 ± 0.000717	–
[2], x2 = 0.8682	-0.0184 ± 0.000478	–
[2], x2 = 0.9448	-0.00813 ± 0.000239	–

ClCCCCCCl [1,5-dichloropentane] + CCCOC=O
Conditions	excess molar enthalpy [kcal/mol]	mass density [kg/m3]
[1], x2 = 0.1431	–	1073.06 ± 5.5
[1], x2 = 0.215	–	1061.43 ± 5.1
[1], x2 = 0.2831	–	1050.01 ± 4.7
[1], x2 = 0.3476	–	1038.81 ± 4.3
[1], x2 = 0.4101	–	1027.62 ± 3.9
[1], x2 = 0.4756	–	1015.48 ± 3.6
[1], x2 = 0.5351	–	1004.04 ± 3.3
[1], x2 = 0.65	–	980.9 ± 2.8
[1], x2 = 0.7551	–	958.34 ± 2.4
[1], x2 = 0.8569	–	935.09 ± 2
[1], x2 = 0.9046	–	923.69 ± 1.9
[1], x2 = 0.953	–	911.75 ± 1.7
[2], x2 = 0.0772	0.0148 ± 0.000478	–
[2], x2 = 0.1733	0.0261 ± 0.000717	–
[2], x2 = 0.2797	0.0335 ± 0.000717	–
[2], x2 = 0.3611	0.0349 ± 0.000717	–
[2], x2 = 0.4265	0.0339 ± 0.000717	–
[2], x2 = 0.48	0.0323 ± 0.000717	–
[2], x2 = 0.5257	0.0301 ± 0.000717	–
[2], x2 = 0.5865	0.0263 ± 0.000717	–
[2], x2 = 0.6476	0.0215 ± 0.000478	–
[2], x2 = 0.7088	0.0163 ± 0.000478	–
[2], x2 = 0.7665	0.0115 ± 0.000478	–
[2], x2 = 0.8266	0.00717 ± 0.000239	–
[2], x2 = 0.8827	0.00406 ± 0.000239	–
[2], x2 = 0.9526	0.0012 ± 0.000239	–
